# Measurements published in paper PMC6219536, “Strategic single point mutation yields a solvent- and salt-stable transaminase from Virgibacillus sp. in soluble form” (Scientific Reports, 2018).
# Tests used:
# [1] = target: T1, VbTA T16F (Virgibacillus pantothenticus, UniProt A0A4P1LYG1); test: X-ray crystal structure, […] Å; type: binding; settings: active site; non-covalent, no aldimine bond with K273
# T1 construct: N-terminal His-tag (pET100-D-TOPO), codon-optimised, E. coli BL21(DE3), His-trap purified; native 448 residues (1350 bp); homodimer 104 kDa; residues 2-444 in crystal
# [2] = target: VbTA T16F (transaminase from Virgibacillus sp. 21D, T16F mutant) (Virgibacillus sp. 21D); test: SEC; Superdex 200 (10/300) GL, 20 mM phosphate buffer pH 8.0, 150 mM NaCl, 0.2 mL/min, 4 °C, calibrated with MW markers
# T1 sequence (A0A4P1LYG1 entry or part of it, stated change not applied): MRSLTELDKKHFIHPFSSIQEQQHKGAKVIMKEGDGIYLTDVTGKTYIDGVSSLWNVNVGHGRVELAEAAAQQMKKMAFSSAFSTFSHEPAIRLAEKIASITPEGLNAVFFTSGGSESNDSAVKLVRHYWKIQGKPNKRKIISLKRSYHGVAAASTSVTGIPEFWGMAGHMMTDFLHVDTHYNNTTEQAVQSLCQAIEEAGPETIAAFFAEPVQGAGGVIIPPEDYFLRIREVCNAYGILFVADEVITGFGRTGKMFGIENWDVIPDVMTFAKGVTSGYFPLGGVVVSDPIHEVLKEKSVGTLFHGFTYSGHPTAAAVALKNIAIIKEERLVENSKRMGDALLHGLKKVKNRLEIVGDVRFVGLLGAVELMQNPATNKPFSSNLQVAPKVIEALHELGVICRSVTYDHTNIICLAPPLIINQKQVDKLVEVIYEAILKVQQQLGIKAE
Compound,"X-ray crystal structure, 2.0 Å [1]",stoichiometry N [2]
Cc1ncc(COP(=O)(O)O)c(C=O)c1O [PLP],One molecule of PLP was bound at the active site,
"VbTA T16F (transaminase from Virgibacillus sp. 21D, T16F mutant) (enzyme)",,2
